Assay results reported in US20110105397A1, “METHOD FOR TREATING HEART FAILURE WITH STRESSCOPIN-LIKE PEPTIDES” (priority 2009, published 2011).
Read-outs that look alike come from different tables or passages of the source.

Experiments:
in vivo = settings: dog, iv
Description: (§1) The findings described above were further examined in a study, in which h-SCP (SEQ ID NO:1) was infused over a 30-minute period at the same total doses that were administered by bolus as described above with the results presented in Table 17 and FIGS. 11A & B. As in the case of bolus dosing h-SCP (SEQ ID NO:1) elicited dose- (infusion-) dependent changes in blood pressure, left ventricular systolic and diastolic function, and heart rate. However, at the lower range of the dose- (infusion-) response curve there was a pronounced lessening in the positive chronotropic and blood pressure response with marked and significant increase in cardiac function measured as increased CO and LVEF. […] The corresponding plasma concentration of h-SCP (SEQ ID NO:1) was 4,577 pg/mL.
(§2) A sandwich immunoassay was developed using an affinity purified goat polyclonal antibody, specific to h-SCP that was pre-coated onto a microplate with integrated electrodes. h-SCP molecules present in the sample will bind to the capture polyclonal antibody coated on the plate. After washing away any unbound substances, a sulfo-tagged mouse monoclonal anti-h-SCP antibody was added. This conjugated antibody will bind to the h-SCP molecules captured on the microplate and the quantity of analyte was determined by electrochemiluminescence. The amount of signal generated is directly proportional to the h-SCP concentration in the sample or standard. The standard curve range is 3.125-1600 pg/mL with a quantifiable range from 10-800 pg/mL. A sample volume of 25 μL (in duplicate) is required for this assay. This immunoassay is specific for human and dog stresscopin and human urocortin III (h-UCN3). […] After completion of the analysis, based on a comparison of reference standards between the ELISA and HPLC method, a correction factor of 1.57 was applied to all bioanalytical data.

[1] = Nonclinical pharmacokinetics in cynomolgus monkeys; settings: cynomolgus monkey, in vivo
Description: as §2
The nonclinical pharmacokinetics of h-SCP (SEQ ID NO:1) and pegylated stresscopin-like peptides were studied in rats, dogs, and cynomolgus monkeys (cyno). Nonclinical pharmacokinetic studies focused on characterization of IV infusion at pharmacologically relevant dose levels, supplemented with IV and SC bolus and toxicokinetic analysis.

[2] = test system: anaesthetized mongrel dogs; assay: Hemodynamic, angiographic, echocardiographic profile in anaesthetized healthy dogs, 30-minute IV infusion; type: in vivo, dog; settings: for CO (Cardiac output) / HR (Heart rate) / LV + dP/dt (LV contractility) / LVEDA (LV end diastolic area) / LVEDV (LV end diastolic volume) / LVEF (LV ejection fraction) / LVESA (LV end systolic area) / LVESV (LV end systolic volume) / LVFAS (LV fractional area of shortening) / PSAP (Peak systolic aortic pressure) / SV (Stroke volume): 30 min
Description: The effects of h-SCP (SEQ ID NO: 1) on cardiovascular function were also assessed in anaesthetized mongrel dogs following intravenous bolus and 30-minute infusions. Hemodynamic and left ventricular systolic and diastolic function was evaluated using conventional hemodynamic, angiographic, echocardiographic, and radiographic methods with the results summarized in Table 16.
as §1

[3] = female, cyno IV infusion 3 hours, F, 16.7 ng/kg/min
[4] = female, cyno IV infusion 3 hours, F, 33.3 ng/kg/min
[5] = female, cyno IV infusion 3 hours, F, 100 ng/kg/min
[6] = male, cyno IV infusion 3 hours, M, 16.7 ng/kg/min
[7] = male, cyno IV infusion 3 hours, M, 33.3 ng/kg/min
[8] = male, cyno IV infusion 3 hours, M, 100 ng/kg/min

H-TKFTLSLDVPTNIMNLLFNIAKAKNLRAQAAANAHLMAQI-NH2 [SEQ ID NO: 1, TKFTLSLDVPTNIMNLLFNIAKAKNLRAQAAANAHLMAQI-NH2]
level at 0.5 h (in vivo; 22 ng/kg/min): 0.62 ng/mL | level at time molar at 0.5 h (in vivo; 22 ng/kg/min): 0.142 nM | level at 0.5 h (in vivo; 43 ng/kg/min): 4.58 ng/mL | level at time molar at 0.5 h (in vivo; 43 ng/kg/min): 1.05 nM | level at 0.5 h (in vivo; 86 ng/kg/min): 5.14 ng/mL | level at time molar at 0.5 h (in vivo; 86 ng/kg/min): 1.18 nM | level at 0.5 h (in vivo; 146 ng/kg/min): 23.6 ng/mL | level at time molar at 0.5 h (in vivo; 146 ng/kg/min): 5.41 nM | level at 0.5 h (in vivo; 437 ng/kg/min): 67.1 ng/mL | level at time molar at 0.5 h (in vivo; 437 ng/kg/min): 15.4 nM | time to apparent steady-state plasma concentration after initiation of infusion ([1]; iv): ≤ 1 h | half-life ([1]; monkeys, two-compartment analysis, read-out: alpha-phase half-life (t1/2 alpha)): < 5 min | clearance ([1]; cynomolgus monkeys, 16.7 to 100 ng/kg/min, read-out: clearance values (CL)): 30 to 40 mL/min/kg | Vss ([1]; female, iv): 0.921 L/kg | half-life ([1]; female, iv, 33.3 ng/kg/min, cyno IV infusion 3 hours, F, 33.3 ng/kg/min, read-out: t1/2 alpha): 4 min | half-life ([1]; female, iv, 33.3 ng/kg/min, cyno IV infusion 3 hours, F, 33.3 ng/kg/min, read-out: t1/2 terminal): 14.8 min | Vd ([1]; female, iv, Vss): 0.848 L/kg | half-life ([1]; female, iv, t1/2 alpha): 3.1 min | AUC(0-inf) [1, 3]: 1.31 ng·h/mL | Cmax [1, 3]: 0.613 ng/mL | clearance ([1]; female, cyno IV infusion 3 hours, F, 16.7 ng/kg/min, read-out: CL): 39.7 mL/min/kg | AUC(0-inf) [1, 4]: 2.34 ng·h/mL | Cmax [1, 4]: 0.958 ng/mL | clearance ([1]; female, cyno IV infusion 3 hours, F, 33.3 ng/kg/min, read-out: CL): 42.9 mL/min/kg | Vd ([1]; female, cyno IV infusion 3 hours, F, 33.3 ng/kg/min, read-out: Vss): 0.931 L/kg | AUC(0-inf) [1, 5]: 7.67 ng·h/mL | Cmax [1, 5]: 3.16 ng/mL | clearance ([1]; female, cyno IV infusion 3 hours, F, 100 ng/kg/min, read-out: CL): 39.1 mL/min/kg | Vss ([1]; male, iv): 0.899 L/kg | half-life ([1]; male, iv, 33.3 ng/kg/min, cyno IV infusion 3 hours, M, 33.3 ng/kg/min, read-out: t1/2 alpha): 3.7 min | half-life ([1]; male, iv, 33.3 ng/kg/min, cyno IV infusion 3 hours, M, 33.3 ng/kg/min, read-out: t1/2 terminal): 26 min | Vd ([1]; male, iv, Vss): 0.788 L/kg | half-life ([1]; male, iv, t1/2 alpha): 2.9 min | AUC(0-inf) [1, 6]: 1.73 ng·h/mL | Cmax [1, 6]: 0.873 ng/mL | clearance ([1]; male, cyno IV infusion 3 hours, M, 16.7 ng/kg/min, read-out: CL): 30.2 mL/min/kg | AUC(0-inf) [1, 7]: 3.47 ng·h/mL | Cmax [1, 7]: 1.48 ng/mL | clearance ([1]; male, cyno IV infusion 3 hours, M, 33.3 ng/kg/min, read-out: CL): 29.2 mL/min/kg | Vd ([1]; male, cyno IV infusion 3 hours, M, 33.3 ng/kg/min, read-out: Vss): 0.611 L/kg | AUC(0-inf) [1, 8]: 9.79 ng·h/mL | Cmax [1, 8]: 4.45 ng/mL | clearance ([1]; male, cyno IV infusion 3 hours, M, 100 ng/kg/min, read-out: CL): 30.7 mL/min/kg | CO (Cardiac output) ([2]; IV infusion 22 ng/kg/min): 2.32 L/min | HR (Heart rate) ([2]; IV infusion 22 ng/kg/min): 81.2 beats/min | LV + dP/dt (LV contractility) ([2]; IV infusion 22 ng/kg/min): 1598 mmHg/sec | LVEDA (LV end diastolic area) ([2]; IV infusion 22 ng/kg/min): 12.2 cm^2 | LVEDV (LV end diastolic volume) ([2]; IV infusion 22 ng/kg/min): 53.0 mL | LVEF (LV ejection fraction) ([2]; IV infusion 22 ng/kg/min): 54.0% | LVESA (LV end systolic area) ([2]; IV infusion 22 ng/kg/min): 6.3 cm^2 | LVESV (LV end systolic volume) ([2]; IV infusion 22 ng/kg/min): 24.5 mL | LVFAS (LV fractional area of shortening) ([2]; IV infusion 22 ng/kg/min): 49% | PSAP (Peak systolic aortic pressure) ([2]; IV infusion 22 ng/kg/min): 95.0 mmHg | SV (Stroke volume) ([2]; IV infusion 22 ng/kg/min): 28.5 mL | CO (Cardiac output) ([2]; IV infusion 43 ng/kg/min): 2.82 L/min | HR (Heart rate) ([2]; IV infusion 43 ng/kg/min): 88.7 beats/min | LV + dP/dt (LV contractility) ([2]; IV infusion 43 ng/kg/min): 1875 mmHg/sec | LVEDA (LV end diastolic area) ([2]; IV infusion 43 ng/kg/min): 11.9 cm^2 | LVEDV (LV end diastolic volume) ([2]; IV infusion 43 ng/kg/min): 55.2 mL | LVEF (LV ejection fraction) ([2]; IV infusion 43 ng/kg/min): 57.5% | LVESA (LV end systolic area) ([2]; IV infusion 43 ng/kg/min): 5.8 cm^2 | LVESV (LV end systolic volume) ([2]; IV infusion 43 ng/kg/min): 23.5 mL | LVFAS (LV fractional area of shortening) ([2]; IV infusion 43 ng/kg/min): 51.5% | PSAP (Peak systolic aortic pressure) ([2]; IV infusion 43 ng/kg/min): 95.2 mmHg | SV (Stroke volume) ([2]; IV infusion 43 ng/kg/min): 31.7 mL | CO (Cardiac output) ([2]; IV infusion 86 ng/kg/min): 2.81 L/min | HR (Heart rate) ([2]; IV infusion 86 ng/kg/min): 91.0 beats/min | LV + dP/dt (LV contractility) ([2]; IV infusion 86 ng/kg/min): 1622 mmHg/sec | LVEDA (LV end diastolic area) ([2]; IV infusion 86 ng/kg/min): 11.8 cm^2 | LVEDV (LV end diastolic volume) ([2]; IV infusion 86 ng/kg/min): 54.2 mL | LVEF (LV ejection fraction) ([2]; IV infusion 86 ng/kg/min): 56.5% | LVESA (LV end systolic area) ([2]; IV infusion 86 ng/kg/min): 5.9 cm^2 | LVESV (LV end systolic volume) ([2]; IV infusion 86 ng/kg/min): 23.5 mL | LVFAS (LV fractional area of shortening) ([2]; IV infusion 86 ng/kg/min): 50.0% | PSAP (Peak systolic aortic pressure) ([2]; IV infusion 86 ng/kg/min): 91.7 mmHg | SV (Stroke volume) ([2]; IV infusion 86 ng/kg/min): 30.7 mL | CO (Cardiac output) ([2]; IV infusion 146 ng/kg/min): 2.97 L/min | HR (Heart rate) ([2]; IV infusion 146 ng/kg/min): 102.5 beats/min | LV + dP/dt (LV contractility) ([2]; IV infusion 146 ng/kg/min): 1594 mmHg/sec | LVEDA (LV end diastolic area) ([2]; IV infusion 146 ng/kg/min): 11.5 cm^2 | LVEDV (LV end diastolic volume) ([2]; IV infusion 146 ng/kg/min): 49.5 mL | LVEF (LV ejection fraction) ([2]; IV infusion 146 ng/kg/min): 58.2% | LVESA (LV end systolic area) ([2]; IV infusion 146 ng/kg/min): 5.6 cm^2 | LVESV (LV end systolic volume) ([2]; IV infusion 146 ng/kg/min): 20.7 mL | LVFAS (LV fractional area of shortening) ([2]; IV infusion 146 ng/kg/min): 51% | PSAP (Peak systolic aortic pressure) ([2]; IV infusion 146 ng/kg/min): 90.0 mmHg | SV (Stroke volume) ([2]; IV infusion 146 ng/kg/min): 28.7 mL | CO (Cardiac output) ([2]; IV infusion 437 ng/kg/min): 3.25 L/min | LV + dP/dt (LV contractility) ([2]; IV infusion 437 ng/kg/min): 1657 mmHg/sec | LVEDA (LV end diastolic area) ([2]; IV infusion 437 ng/kg/min): 10.8 cm^2 | LVEDV (LV end diastolic volume) ([2]; IV infusion 437 ng/kg/min): 46.0 mL | LVEF (LV ejection fraction) ([2]; IV infusion 437 ng/kg/min): 60.7% | LVESA (LV end systolic area) ([2]; IV infusion 437 ng/kg/min): 5.1 cm^2 | LVESV (LV end systolic volume) ([2]; IV infusion 437 ng/kg/min): 18.2 mL | LVFAS (LV fractional area of shortening) ([2]; IV infusion 437 ng/kg/min): 53.5% | PSAP (Peak systolic aortic pressure) ([2]; IV infusion 437 ng/kg/min): 89.5 mmHg | SV (Stroke volume) ([2]; IV infusion 437 ng/kg/min): 28 mL | HR (Heart rate) ([2]; IV infusion 437 ng/kg/min, junctional tachycardia): 117.3 beats/min | minimum anticipated biological effect level (MABEL) ([2]; healthy dogs): 22 ng/kg/min | infusion rate for minimal effect ([2]; healthy dogs, 30-minute infusion): 43 ng/kg/min
